Measured values as given in patent publication US9693556B2, “Herbicidal pyridazinone derivatives” (SYNGENTA LIMITED, priority 2011, dated 2017).

Key:
Assay type in all cases: in vivo
[1] = system: Solanum nigrum (SOLNI); assay: Post-emergence herbicidal glasshouse test on Solanum nigrum; conditions: post-emergence; 1000 g/h; evaluated after 13 days
Procedure, shortened: (§1)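 Read-out: percentage herbicidal damage 13 days after spraying, given on a five-point scale (5=80-100%, 4=60-79%, 3=40-59%, 2=20-39%, 1=0-19%). Pots of standard soil; application at 1000 g/h, one day post-sowing for pre-emergence, eight days for post-emergence.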

[2] = system: Echinochloa crus-galli (ECHCG); assay: Post-emergence herbicidal glasshouse test on Echinochloa crus-galli; conditions: post-emergence; 1000 g/h; evaluated after 13 days
Procedure, shortened: as §1

[3] = system: Echinochloa crus-galli (ECHCG); assay: Pre-emergence herbicidal glasshouse test on Echinochloa crus-galli; conditions: pre-emergence; 1000 g/h; evaluated after 13 days
Procedure, shortened: as §1

[4] = system: Solanum nigrum (SOLNI); assay: Pre-emergence herbicidal glasshouse test on Solanum nigrum; conditions: pre-emergence; 1000 g/h; evaluated after 13 days
Procedure, shortened: as §1

[5] = system: Amaranthus retoflexus (AMARE); assay: Pre-emergence herbicidal glasshouse test on Amaranthus retoflexus; conditions: pre-emergence; 1000 g/h; evaluated after 13 days
Procedure, shortened: as §1

[6] = system: Setaria faberi (SETFA); assay: Pre-emergence herbicidal glasshouse test on Setaria faberi; conditions: pre-emergence; 1000 g/h; evaluated after 13 days
Procedure, shortened: as §1

[7] = system: Amaranthus retoflexus (AMARE); assay: Post-emergence herbicidal glasshouse test on Amaranthus retoflexus; conditions: post-emergence; 1000 g/h; evaluated after 13 days
Procedure, shortened: as §1

[8] = system: Alopecurus myosuroides (ALOMY); assay: Pre-emergence herbicidal glasshouse test on Alopecurus myosuroides; conditions: pre-emergence; 1000 g/h; evaluated after 13 days
Procedure, shortened: as §1

[9] = system: Ipomoea hederacea (IPOHE); assay: Post-emergence herbicidal glasshouse test on Ipomoea hederacea; conditions: post-emergence; 1000 g/h; evaluated after 13 days
Procedure, shortened: as §1

[10] = system: Ipomoea hederacea (IPOHE); assay: Pre-emergence herbicidal glasshouse test on Ipomoea hederacea; conditions: pre-emergence; 1000 g/h; evaluated after 13 days
Procedure, shortened: as §1

[11] = system: Setaria faberi (SETFA); assay: Post-emergence herbicidal glasshouse test on Setaria faberi; conditions: post-emergence; 1000 g/h; evaluated after 13 days
Procedure, shortened: as §1

[12] = system: Alopecurus myosuroides (ALOMY); assay: Post-emergence herbicidal glasshouse test on Alopecurus myosuroides; conditions: post-emergence; 1000 g/h; evaluated after 13 days
Procedure, shortened: as §1

SMILES | POST Application SOLNI herbicidal damage (five point scale) [1] | POST Application ECHCG herbicidal damage (five point scale) [2] | PRE Application ECHCG herbicidal damage (five point scale) [3] | PRE Application SOLNI herbicidal damage (five point scale) [4] | PRE Application AMARE herbicidal damage (five point scale) [5] | PRE Application SETFA herbicidal damage (five point scale) [6] | POST Application AMARE herbicidal damage (five point scale) [7] | PRE Application ALOMY herbicidal damage (five point scale) [8] | POST Application IPOHE herbicidal damage (five point scale) [9] | PRE Application IPOHE herbicidal damage (five point scale) [10] | POST Application SETFA herbicidal damage (five point scale) [11] | POST Application ALOMY herbicidal damage (five point scale) [12]
COc1ccc(-c2c(C(F)(F)F)ccn(-c3cnn(C)c(=O)c3O)c2=O)cc1 [Compound 7.033] | 5 (5=80-100% damage) | 5 (5=80-100% damage) | 5 (5=80-100% damage) | 5 (5=80-100% damage) | 5 (5=80-100% damage) | 5 (5=80-100% damage) | 5 (5=80-100% damage) | 5 (5=80-100% damage) | 3 (3=40-59% damage) | 4 (4=60-79% damage) | 5 (5=80-100% damage) | 5 (5=80-100% damage)
C=Cc1ccccc1-c1c(C(F)(F)F)ccn(-c2cnn(C)c(=O)c2O)c1=O [Compound 7.034] | 5 (5=80-100% damage) | 3 (3=40-59% damage) | 1 (1=0-19% damage) | 5 (5=80-100% damage) | 5 (5=80-100% damage) | 1 (1=0-19% damage) | 5 (5=80-100% damage) | 2 (2=20-39% damage) | 2 (2=20-39% damage) | 1 (1=0-19% damage) | 3 (3=40-59% damage) | 1 (1=0-19% damage)
Cn1ncc(-n2ccc(C(F)(F)F)c(-c3ccc(C(F)(F)F)cc3)c2=O)c(O)c1=O [Compound 7.035] | 5 (5=80-100% damage) | 5 (5=80-100% damage) | 5 (5=80-100% damage) | 5 (5=80-100% damage) | 5 (5=80-100% damage) | 5 (5=80-100% damage) | 5 (5=80-100% damage) | 5 (5=80-100% damage) | 4 (4=60-79% damage) | 3 (3=40-59% damage) | 5 (5=80-100% damage) | 5 (5=80-100% damage)
CSc1ccc(-c2c(C(F)(F)F)ccn(-c3cnn(C)c(=O)c3O)c2=O)cc1 [Compound 7.036] | 5 (5=80-100% damage) | 4 (4=60-79% damage) | 1 (1=0-19% damage) | 5 (5=80-100% damage) | 5 (5=80-100% damage) | 2 (2=20-39% damage) | 5 (5=80-100% damage) | 2 (2=20-39% damage) | 4 (4=60-79% damage) | 4 (4=60-79% damage) | 3 (3=40-59% damage) | 2 (2=20-39% damage)
Cc1cc(Cl)ccc1-c1c(C(F)(F)F)ccn(-c2cnn(C)c(=O)c2O)c1=O [Compound 7.038] | 5 (5=80-100% damage) | 5 (5=80-100% damage) | 5 (5=80-100% damage) | 5 (5=80-100% damage) | 5 (5=80-100% damage) | 3 (3=40-59% damage) | 5 (5=80-100% damage) | 5 (5=80-100% damage) | 5 (5=80-100% damage) | 4 (4=60-79% damage) | 3 (3=40-59% damage) | 5 (5=80-100% damage)
Cn1ncc(-c2cnc(C(F)(F)F)nc2N2CCOCC2)c(O)c1=O [Compound 8.001, 4-hydroxy-2-methyl-5-[4-morpholino-2-(trifluoromethyl)pyrimidin-5-yl]pyridazin-3-one] | 5 (5=80-100% damage) | 5 (5=80-100% damage) | 5 (5=80-100% damage) | 5 (5=80-100% damage) | 5 (5=80-100% damage) | 2 (2=20-39% damage) | 5 (5=80-100% damage) | 1 (1=0-19% damage) | 5 (5=80-100% damage) | 3 (3=40-59% damage) | 2 (2=20-39% damage) | 1 (1=0-19% damage)
Cn1ncc(-c2ccc(C(F)(F)F)n(-c3cccc(C(F)(F)F)n3)c2=O)c(O)c1=O [Compound 9.001] | 4 (4=60-79% damage) | 4 (4=60-79% damage) | 2 (2=20-39% damage) | 1 (1=0-19% damage) | 2 (2=20-39% damage) | 1 (1=0-19% damage) | 3 (3=40-59% damage) | 3 (3=40-59% damage) | 1 (1=0-19% damage) | 1 (1=0-19% damage) | 4 (4=60-79% damage) | 4 (4=60-79% damage)
C=CCn1cccc(-c2cnn(C)c(=O)c2O)c1=O [Compound 9.002] | 5 (5=80-100% damage) | 2 (2=20-39% damage) | 1 (1=0-19% damage) | 1 (1=0-19% damage) | 1 (1=0-19% damage) | 1 (1=0-19% damage) | 4 (4=60-79% damage) | 1 (1=0-19% damage) | 2 (2=20-39% damage) | 1 (1=0-19% damage) | 2 (2=20-39% damage) | 1 (1=0-19% damage)
Cn1cccc(-c2cnn(C)c(=O)c2O)c1=O [Compound 9.003] | 4 (4=60-79% damage) | 1 (1=0-19% damage) | 1 (1=0-19% damage) | 1 (1=0-19% damage) | 2 (2=20-39% damage) | 1 (1=0-19% damage) | 4 (4=60-79% damage) | 1 (1=0-19% damage) | 2 (2=20-39% damage) | 1 (1=0-19% damage) | 2 (2=20-39% damage) | 1 (1=0-19% damage)
COc1ccc(Cn2cccc(-c3cnn(C)c(=O)c3O)c2=O)cc1 [Compound 9.004] | 4 (4=60-79% damage) | 1 (1=0-19% damage) | 1 (1=0-19% damage) | 1 (1=0-19% damage) | 1 (1=0-19% damage) | 1 (1=0-19% damage) | 4 (4=60-79% damage) | 1 (1=0-19% damage) | 3 (3=40-59% damage) | 1 (1=0-19% damage) | 1 (1=0-19% damage) | 1 (1=0-19% damage)
